Experimental data published in patent US12599608B2, “Methods for treating cardiac valve disease” (The Regents of the University of California, priority 2018, dated 2026).
Entries after “also recorded” stand apart in the source; their conditions may differ.

Key:
N1^+/− ECs = assay: Whole transcriptome RNA-seq of N1^+/− ECs treated with network-correcting molecules; format: cell-based, human; settings: for repressive effect on cadherin-11 mRNA expression: FIG. 9A; for restoration of the N1-dependent network as a whole: FIGS. 2E, 3A
Protocol: ECs were lysed and RNA was isolated using the Qiagen RNeasy Micro purification kit. RNA-seq libraries were constructed using the Clontech SMRTer Stranded RNA-seq Library Prep Kit for Illumina per kit protocol. Libraries were analyzed by Agilent Bioanalyzer, normalized to equivalent concentration, pooled, gel purified, and sequenced 75 bp paired-end on an Illumina NextSeq instrument with 10% PhiX.
Sequencing quality was assessed with FASTQC (located on the web by placing “www.” in front of “bioinformatics.babraham.ac.uk/projects/fastqc/”). Reads were aligned to the hg19 (Homo sapiens assembly February 2009) transcriptome and genome using the Spliced Transcripts Alignment to a Reference (STAR) Aligner (Dobin et al., Bioinformatics. 2012; 29:15-21) and differential expression was analyzed using Cuffdiff (Trapnell et al., Nat Biotechnol. 2012; 31:46-53). HOPACH was used for clustering with the correlation metric (van der Laan and Pollard; located on the web by placing “www.” in front of “bioconductor.org/packages/devel/bioc/manuals/hopach/man/hopach.pdf”. GO analyses were completed using GO-Elite and ToppGene (Chen et al., Nucleic Acids Research. 2009; 37:W305-W311; Zambon et al., Bioinformatics. 2012; 28:2209-2210). Network diagrams were generated using NetworkX (Hagberg et al., SciPy. 2008) based on network connections inferred from mRNA-seq gene expression of isogenic N1^+/− compared to WT ECs with colors based on whole transcriptome RNA-seq gene expression of DMSO- vs small molecule-treated WT and N1^+/− ECs.

N1^+/− iPSC-derived ECs = assay: Network-based small molecule screen by targeted RNA-seq of 119 genes (KNN and hierarchical clustering); format: cell-based, human; settings: initial screen, complete agglomeration method
Text: TALEN-engineered isogenic human iPSCs that were either WT (wild-type) or N1^+/− were derived and characterized as detailed in Theodoris et al., Cell. 2015; 160:1072-1086. Isogenic iPSCs (induced pluripotent stem cells) were differentiated into ECs as previously described (Theodoris et al., 2015; White et al., Stem Cells. 2012; 31:92-103). On day 13 of the differentiation process, ECs were greater than 90% double-positive for CD31 (BD #558068) and CD144 (#FAB9381P) by FACS (fluorescence-activated cell sorting) analysis (FIGS. 9G-H). Small molecule experiments (described below) were conducted at day 15 of differentiation.
Starting on day 15 of differentiation, WT ECs were exposed to 10 μM DMSO (dimethyl sulfoxide) (n=80) while isogenic N1^+/− ECs were exposed to either 10 μM DMSO (n=80) or one of the small molecules from the LOPAC (1280 molecules) (Sigma LO1280) or Sheng Ding (315 molecules) chemical libraries. DMSO or small molecules were renewed with EC media (ScienCell #1001) changes on alternating days until the cells were ultimately collected for analysis on day 21. ECs were imaged using the IN Cell Analyzer on day 21 to evaluate morphology and cell death; wells with extensive cell death were eliminated from final analyses. For validation experiments, promising small molecules identified from the initial screen were applied to N1^+/− ECs in duplicate or triplicate along with controls of DMSO-exposed WT and N1^+/− ECs (n=4 each) using the same process as the initial screen described above.
ECs were lysed and RNA was isolated using the Qiagen RNeasy 96-well purification kit. RNA was diluted so that it was between the 10 pg-1 ng range accepted by the Cellular Research Precise targeted RNA-seq (RNA sequencing) system. Targeted RNA-seq libraries were prepared as per the Cellular Research Precise protocol (Rev 03092015), which includes both molecule and sample barcoding. The selected 119 target genes (see Table 1) included 3 low-expressing housekeeping genes for normalization (CHMP2A, C1orf43, REEP5) and either predicted central regulatory nodes or peripheral genes positioned within varied regions of the N1 network to permit identification of small molecules that affected central nodes as well as those that may have a synergistic effect in combination due to regulating different aspects of the network. Briefly, RNA was added to the Precise Encoding Plate containing indexed dT primer, dNTPs, and Spike-in mRNA controls and incubated at 65° C. for 3 minutes followed by cooling on ice. A master-mix of RT enzyme, RNase inhibitor, and buffer was then added to the samples, and they were incubated at 42° C. for 30 minutes followed by 80° C. for 5 minutes. Each plate of samples was combined into a single 2 ml tube and purified with AMPureXP beads. N1 PCR master-mix was added and samples were incubated for 94° C. for 2 minutes, followed by 15 cycles of 94° C. for 30 seconds, 55° C. for 3 minutes, and 68° C. for 1 minute, followed by 68° C. for 7 minutes. Samples were purified with AMPureXP beads and N2 PCR master-mix was added. Samples were incubated with the same thermal cycler program as above for 12 cycles. These final libraries were then purified with AMPureXP beads and analyzed for quality and concentration by Agilent Bioanalyzer and Illumina Library Quantification Kit (KAPA Biosystems), respectively. Libraries were normalized to equivalent concentration and pooled for paired-end 100 bp sequencing on an Illumina HiSeq 2500 instrument.
Sequencing data was analyzed using Cellular Research Precise Analysis Pipeline on the SevenBridges platform, which included analyzing sequencing quality with FASTQC, trimming adapters and filtering reads, demultiplexing based on sample barcodes, aligning reads with Bowtie 2, and determining the number of unique molecular indices per gene. Network inference was based on mutual information of gene expression from all DMSO- and small molecule-exposed samples as described in Margolin et al., BMC Bioinformatics. […]

Row | SMILES | repression of genes aberrantly activated in N1-haploinsufficient ECs (N1^+/− ECs; FIG. 2A) | repressive effect on cadherin-11 mRNA expression (N1^+/− ECs) | restoration of the N1-dependent network as a whole (N1^+/− ECs) | hierarchical clustering of transcriptional profile of treated N1-haploinsufficient ECs with WT ECs (N1^+/− iPSC-derived ECs) | restoration of transcription of genes repressed in N1-haploinsufficient ECs (N1^+/− ECs; FIG. 2A) | correlation of gene expression of treated N1^+/− ECs with WT ECs (N1^+/− ECs; FIG. 2B) | restorative effect on regulatory nodes SOX7 and TCF4 (N1^+/− ECs; FIG. 2D)
1 | CCN1/C(=C/C(C)=O)Sc2ccc(OC)cc21 [TG003, (Z)-1-(3-ethyl-5-methoxy-2,3-dihydrobenzothiazol-2-ylidene)propan-2-one] | broadly effective at repressing these genes, albeit to a lesser degree | strongest repressive effect | strong restorative effect | cluster with WT ECs | – | – | –
2 | COc1cc(/C=C(\C#N)C(=O)Nc2nnc(C(F)(F)F)s2)ccc1OCc1ccc(C(F)(F)F)cc1C(F)(F)F [XCT790, 2E-3-(4-{[2,4-bis(trifluoromethyl)benzyl]oxy}-3-methoxyphenyl)-2-cyano-N-[5-(trifluoromethyl)-1,3,4-thiadiazol-2-yl]acrylamide] | most effective at repressing genes aberrantly activated in N1-haploinsufficient ECs | strongest repressive effect | most effective at restoring both aberrantly activated and repressed genes; also recorded: corrected the greatest number of genes to the greatest degree; also recorded: strongest restorative effect on central regions of the network | cluster with WT ECs | effectively restored the transcription of mesoderm and cell cycle checkpoint genes | correlated most strongly; also recorded: correlate most strongly with WT ECs | strongest restorative effect
